# Assay results reported in patent publication US12133920B2, “Stabilization of beta-hydroxyisovaleric acid formulations in soft gel capsules” (TSI Group Ltd., priority 2016, dated 2024).
# Test: Accelerated stability test: HMB-FA contents per capsule
# Assay type: physicochemical
# Settings: for HMB FA contents: 40±2° C., 75% RH±5% RH, sealed HDPE bottles, HMB-FA 75 wt %, betaine anhydrous 18 wt %, purified water 7 wt %
# Description: Accelerated Stability Test: To assess how the quality and purity of the instantly disclosed composition would vary with time under the influence of environmental factors of temperature and humidity, accelerated stability tests were performed. Tests were carried out according to guidelines provided in Stability Testing of New Drug Substances and Products issued by ICH and Stability testing guideline of dietary supplements by NSF. NSF Stability Testing Working Group, Stability testing guideline of dietary supplements, January 2011. […] The gel capsule composition was HMB-FA 75 wt %; betaine anhydrous 18 wt % and purified water 7 wt %. Samples were repacked in HDPE bottles (size: 1 80 ct, 300 rnl) then sealed with aluminum foil. Samples were exposed to high temperature and high humidity (40±2° C.; 75% RH±5% RH) and evaluated at 1, 2, and 3 months.
smiles,measurement,setting,value
"CC(C)(O)CC(=O)O [HMB FA, Beta-hydroxyisovaleric acid]",HMB FA contents,0 months,519 mg/capsule
same,HMB FA contents,1 month,494.4 mg/capsule
same,HMB FA contents,2 months,484.8 mg/capsule
same,HMB FA contents,3 months,491.8 mg/capsule
same,stability of HMB FA (overall),"high heat high humidity environments, periods exceeding three months",substantially stable
